The values that follow come from patent publication EP2158208B1, “PROCESS FOR PREPARING AN A2A-ADENOSINE RECEPTOR AGONIST AND ITS POLYMORPHS” (Gilead Sciences, Inc., priority 2007, dated 2008).

Series [1] concerns the target A2A-adenosine receptor (Homo sapiens, UniProt P29274). The settings on record: disclosed in U.S. Patent No. 6,403,567; cited from earlier work.
The nature of series [2]: stability of polymorphs with temperature (thermal analyses). In kind it is physicochemical. The settings on record: for relative stability among the polymorphs: at ambient temperatures, monohydrate. The method, then: Thermogravimetric (TG) analyses were carried out on a TA Instruments 2050 or 2950 thermogravimetric analyzer. The calibration standards were nickel and Alumel™. Samples were placed in an aluminum sample pan, inserted into the TG furnace, and accurately weighed. The samples were heated in nitrogen at a rate of 10°C/min to either 300 or 350° C. Unless stated otherwise, samples weights were equilibrated at 25°C in the TGA furnace prior to analysis.
Differential scanning calorimetry (DSC) analyses were carried out on a TA Instruments differential scanning calorimeter 2920. Accurately weighed samples were placed in either crimped pans or hermetically sealed pans that contained a pinhole to allow for pressure release. Each sample was heated under nitrogen at a rate of 10°C/min to either 300 or 350°C. Indium metal was used as the calibration standard. Temperatures were reported at the transition maxima.

Series [3] can be described thus: stability of polymorphs under relative humidity stress / atmospheric moisture. In kind it is physicochemical. The settings on record: for stability under relative humidity stress conditions: up to melting point, monohydrate. The method, then: Moisture sorption/desorption data were collected on a VTI SGA-100 Vapor Sorption Analyzer. Sorption and desorption data were collected over a range of 5% to 95% relative humidity […] at 10% RH intervals under a nitrogen purge. Sodium chloride (NaCl) and polyvinylpyrrolidone (PVP) were used as the calibration standards. Equilibrium criteria used for analysis were less than 0.0100% weight change in 5 minutes, with a maximum equilibration time of 180 minutes if the weight criterion was not met. The plotted data have not been corrected for the initial moisture content.

For series [4] the following is noted: in humans; cited from earlier work.

Chain of A2A-adenosine receptor (P29274 whole entry): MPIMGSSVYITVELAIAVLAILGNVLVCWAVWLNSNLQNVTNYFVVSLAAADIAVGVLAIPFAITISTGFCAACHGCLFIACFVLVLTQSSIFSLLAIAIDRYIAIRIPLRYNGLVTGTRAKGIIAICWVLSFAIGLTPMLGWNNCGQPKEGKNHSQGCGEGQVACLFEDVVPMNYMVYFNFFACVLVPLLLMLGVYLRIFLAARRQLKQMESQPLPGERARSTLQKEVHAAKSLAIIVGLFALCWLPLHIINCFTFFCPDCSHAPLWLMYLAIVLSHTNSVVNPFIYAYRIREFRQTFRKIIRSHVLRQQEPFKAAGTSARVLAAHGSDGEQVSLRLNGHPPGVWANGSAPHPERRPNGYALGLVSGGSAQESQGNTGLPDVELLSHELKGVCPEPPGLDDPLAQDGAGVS

For the compound `CNC(=O)c1cnn(-c2nc(N)c3ncn([C@@H]4O[C@H](CO)[C@@H](O)[C@H]4O)c3n2)c1` [(1-{9-[(4S,2R,3R,5R)-3,4-dihydroxy-5-(hydroxymethyl)oxolan-2-yl]-6-aminopurin-2-yl}pyrazol-4-yl)-N-methylcarboxamide], the “selectivity as A2A-adenosine receptor agonist” value in series [1] is listed as “highly selective”.

Consider `CNC(=O)c1cnn(-c2nc(N)c3ncn([C@@H]4O[C@H](CO)[C@@H](O)[C@H]4O)c3n2)c1` [Form C, (1-{9-[(4S,2R,3R,5R)-3,4-dihydroxy-5-(hydroxymethyl)oxolan-2-yl]-6-aminopurin-2-yl}pyrazol-4-yl)-N-methylcarboxamide], for which the “stability at elevated temperatures” value in series [2] (elevated temperatures) was “desolvates to an unstable form”.

For `CNC(=O)c1cnn(-c2nc(N)c3ncn([C@@H]4O[C@H](CO)[C@@H](O)[C@H]4O)c3n2)c1.O` [Form A, (1-{9-[(4S,2R,3R,5R)-3,4-dihydroxy-5-(hydroxymethyl)oxolan-2-yl]-6-aminopurin-2-yl}pyrazol-4-yl)-N-methylcarboxamide monohydrate], the “stability under relative humidity stress conditions” value was “stable under relative humidity stress conditions, up to its melting point” in series [3] (listed as monohydrate) and “stable under relative humidity stress conditions up to its melting point” in series [3]. Further, the “relative stability among the polymorphs” value was “most stable” in series [2] (listed as monohydrate) and “most stable of the various polymorphs at ambient temperatures” in series [2].

As for `CNC(=O)c1cnn(-c2nc(N)c3ncn([C@@H]4O[C@H](CO)[C@@H](O)[C@H]4O)c3n2)c1` [Amorphous Material, (1-{9-[(4S,2R,3R,5R)-3,4-dihydroxy-5-(hydroxymethyl)oxolan-2-yl]-6-aminopurin-2-yl}pyrazol-4-yl)-N-methylcarboxamide], the “stability in the presence of atmospheric moisture” value in series [3] (atmospheric moisture) is “unstable in the presence of atmospheric moisture”.

For the compound `Nc1ncnc2c1ncn2[C@@H]1O[C@H](CO)[C@@H](O)[C@H]1O` [Adenosine], the half life result in series [4] was “less than 10 seconds”.
